Assay results reported in ChEMBL document CHEMBL4421728, “Bach1 Inhibitors in Combination with Nrf2 Activators and Pharmaceutical Compositions Thereof” (2017).

Tests used:
[1] = target: T1, Transcription regulator protein BACH1 (Homo sapiens) (UniProt O14867); assay: Inhibition of Bach1 in normal human lung fibroblasts assessed as induction of HMOX protein expression at 0.039 uM in presence of 0.1 uM Nrf2 activator DMF incubated for 16 to 18 hrs by immunostaining relative to control
T1 sequence (whole entry): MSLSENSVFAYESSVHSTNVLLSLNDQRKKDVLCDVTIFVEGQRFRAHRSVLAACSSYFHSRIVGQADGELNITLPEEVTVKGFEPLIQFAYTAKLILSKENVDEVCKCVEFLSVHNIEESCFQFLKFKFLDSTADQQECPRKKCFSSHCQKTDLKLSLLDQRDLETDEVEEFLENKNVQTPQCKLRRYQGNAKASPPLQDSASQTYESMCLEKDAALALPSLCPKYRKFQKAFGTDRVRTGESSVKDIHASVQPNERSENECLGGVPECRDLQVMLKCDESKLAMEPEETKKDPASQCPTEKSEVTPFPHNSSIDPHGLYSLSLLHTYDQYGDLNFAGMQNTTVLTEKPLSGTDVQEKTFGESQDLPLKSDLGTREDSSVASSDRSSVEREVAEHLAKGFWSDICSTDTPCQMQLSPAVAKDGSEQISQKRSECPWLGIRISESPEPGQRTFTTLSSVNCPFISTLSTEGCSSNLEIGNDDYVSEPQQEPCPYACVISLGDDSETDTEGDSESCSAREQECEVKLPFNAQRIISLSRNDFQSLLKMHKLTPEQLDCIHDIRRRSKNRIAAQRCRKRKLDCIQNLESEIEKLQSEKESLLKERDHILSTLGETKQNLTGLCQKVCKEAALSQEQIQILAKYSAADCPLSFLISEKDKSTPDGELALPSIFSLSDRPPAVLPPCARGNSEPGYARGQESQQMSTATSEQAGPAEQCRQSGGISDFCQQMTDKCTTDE

[2] = target: T1, Transcription regulator protein BACH1 (Homo sapiens); assay: Inhibition of Bach1 in normal human lung fibroblasts assessed as induction of HMOX protein expression at 0.156 uM incubated for 16 to 18 hrs by immunostaining relative to control
[3] = target: T1, Transcription regulator protein BACH1 (Homo sapiens); assay: Inhibition of Bach1 in normal human lung fibroblasts assessed as induction of HMOX protein expression by measuring HMOX positive cells level at 0.039 uM in presence of 0.03 uM Nrf2 activator DMF incubated for 16 to 18 hrs by immunostaining relative to control DMSO; design: scale not given: the % may be the effect or the level left
[4] = target: T1, Transcription regulator protein BACH1 (Homo sapiens); assay: Inhibition of Bach1 in normal human lung fibroblasts assessed as induction of HMOX protein expression by measuring HMOX positive cells level at 0.039 uM in presence of 0.1 uM Nrf2 activator DMF incubated for 16 to 18 hrs by immunostaining relative to control DMSO; design: scale not given: the % may be the effect or the level left
[5] = target: T1, Transcription regulator protein BACH1 (Homo sapiens); assay: Inhibition of Bach1 in normal human lung fibroblasts assessed as induction of HMOX protein expression by measuring HMOX positive cells level at 0.078 uM in presence of 1 uM Nrf2 activator DMF incubated for 16 to 18 hrs by immunostaining relative to control DMSO; design: scale not given: the % may be the effect or the level left
[6] = target: T1, Transcription regulator protein BACH1 (Homo sapiens); assay: Inhibition of Bach1 in normal human lung fibroblasts assessed as induction of HMOX protein expression by measuring HMOX positive cells level at 0.019 uM in presence of 30 uM Nrf2 activator DMF incubated for 16 to 18 hrs by immunostaining relative to control DMSO; design: scale not given: the % may be the effect or the level left
[7] = target: T1, Transcription regulator protein BACH1 (Homo sapiens); assay: Inhibition of Bach1 in normal human lung fibroblasts assessed as induction of HMOX protein expression by measuring HMOX positive cells level at 0.019 uM in presence of 0.3 uM Nrf2 activator DMF incubated for 16 to 18 hrs by immunostaining relative to control DMSO; design: scale not given: the % may be the effect or the level left
[8] = target: T1, Transcription regulator protein BACH1 (Homo sapiens); assay: Inhibition of Bach1 in normal human lung fibroblasts assessed as induction of HMOX protein expression at 0.019 uM incubated for 16 to 18 hrs by immunostaining relative to control
[9] = target: T1, Transcription regulator protein BACH1 (Homo sapiens); assay: Inhibition of Bach1 in normal human lung fibroblasts assessed as induction of HMOX protein expression by measuring HMOX positive cells level at 0.039 uM in presence of 0.3 uM Nrf2 activator DMF incubated for 16 to 18 hrs by immunostaining relative to control DMSO; design: scale not given: the % may be the effect or the level left
[10] = target: T1, Transcription regulator protein BACH1 (Homo sapiens); assay: Inhibition of Bach1 in normal human lung fibroblasts assessed as induction of HMOX protein expression by measuring HMOX positive cells level at 0.078 uM in presence of 30 uM Nrf2 activator DMF incubated for 16 to 18 hrs by immunostaining relative to control DMSO; design: scale not given: the % may be the effect or the level left
[11] = target: T1, Transcription regulator protein BACH1 (Homo sapiens); assay: Inhibition of Bach1 in normal human lung fibroblasts assessed as induction of HMOX protein expression at 0.039 uM in presence of 3 uM Nrf2 activator DMF incubated for 16 to 18 hrs by immunostaining relative to control
[12] = target: T1, Transcription regulator protein BACH1 (Homo sapiens); assay: Inhibition of Bach1 in normal human lung fibroblasts assessed as induction of HMOX protein expression by measuring HMOX positive cells level at 0.039 uM in presence of 30 uM Nrf2 activator DMF incubated for 16 to 18 hrs by immunostaining relative to control DMSO; design: scale not given: the % may be the effect or the level left
[13] = target: T1, Transcription regulator protein BACH1 (Homo sapiens); assay: Inhibition of Bach1 in normal human lung fibroblasts assessed as induction of HMOX protein expression at 0.078 uM in presence of 3 uM Nrf2 activator DMF incubated for 16 to 18 hrs by immunostaining relative to control
[14] = target: T1, Transcription regulator protein BACH1 (Homo sapiens); assay: Inhibition of Bach1 in normal human lung fibroblasts assessed as induction of HMOX protein expression at 0.156 uM in presence of 0.03 uM Nrf2 activator DMF incubated for 16 to 18 hrs by immunostaining relative to control
[15] = target: T1, Transcription regulator protein BACH1 (Homo sapiens); assay: Inhibition of Bach1 in normal human lung fibroblasts assessed as induction of HMOX protein expression by measuring HMOX positive cells level at 0.156 uM in presence of 10 uM Nrf2 activator DMF incubated for 16 to 18 hrs by immunostaining relative to control DMSO; design: scale not given: the % may be the effect or the level left
[16] = target: T1, Transcription regulator protein BACH1 (Homo sapiens); assay: Inhibition of Bach1 in normal human lung fibroblasts assessed as induction of HMOX protein expression at 0.078 uM in presence of 0.03 uM Nrf2 activator DMF incubated for 16 to 18 hrs by immunostaining relative to control
[17] = target: T1, Transcription regulator protein BACH1 (Homo sapiens); assay: Inhibition of Bach1 in normal human lung fibroblasts assessed as induction of HMOX protein expression by measuring HMOX positive cells level at 0.019 uM in presence of 3 uM Nrf2 activator DMF incubated for 16 to 18 hrs by immunostaining relative to control DMSO; design: scale not given: the % may be the effect or the level left
[18] = target: T1, Transcription regulator protein BACH1 (Homo sapiens); assay: Inhibition of Bach1 in normal human lung fibroblasts assessed as induction of HMOX protein expression by measuring HMOX positive cells level at 0.019 uM incubated for 16 to 18 hrs by immunostaining relative to control DMSO; design: scale not given: the % may be the effect or the level left
[19] = target: T1, Transcription regulator protein BACH1 (Homo sapiens); assay: Inhibition of Bach1 in normal human lung fibroblasts assessed as induction of HMOX protein expression by measuring HMOX positive cells level at 0.156 uM in presence of 0.1 uM Nrf2 activator DMF incubated for 16 to 18 hrs by immunostaining relative to control DMSO; design: scale not given: the % may be the effect or the level left
[20] = target: T1, Transcription regulator protein BACH1 (Homo sapiens); assay: Inhibition of Bach1 in normal human lung fibroblasts assessed as induction of HMOX protein expression at 0.039 uM in presence of 10 uM Nrf2 activator DMF incubated for 16 to 18 hrs by immunostaining relative to control

fold change (FC) [1]	fold change (FC) [2]	Activity [3]	Activity [4]	Activity [5]	Activity [6]	Activity [7]	fold change (FC) [8]	Activity [9]	Activity [10]	fold change (FC) [11]	Activity [12]	fold change (FC) [13]	fold change (FC) [14]	Activity [15]	fold change (FC) [16]	Activity [17]	Activity [18]	Activity [19]	fold change (FC) [20]	SMILES
1.35	2.66	5.74%	6.82%	37.7%	84.2%	6.49%	1.29	12.8%	96.2%	3.01	90.4%	4.33	1.99	100%	1.37	51.5%	3.6%	33.1%	5.13	CN(C)C(=O)CNC(=O)c1ccc2c(c1)nc(Nc1nc3ccc(C(F)(F)F)cc3s1)n2C
1.52	6.46	11.9%	6.75%	84.8%	84%	7.63%	2.08	18.7%	91.3%	4	91.9%	4.2	5.22	100%	2.35	80.2%	19.4%	88.2%	5.64	Cn1c(Nc2nc3ccc(C(F)(F)F)cc3s2)nc2cc(C(=O)NCCOCCO)ccc21
1.08	1.96	1.53%	2.54%	29.4%	84.9%	8.27%	1.24	13%	86.8%	2.84	87.5%	3.12	1.46	99.7%	1.12	54.6%	2.31%	18.5%	4.86	COCCNC(=O)c1cnc2c(c1)nc(Nc1nc3ccc(OC(F)(F)F)cc3s1)n2C
–	3.46	–	–	–	–	–	0.97	–	–	–	–	–	–	–	–	–	–	–	–	CNC(=O)c1ccc2c(c1)nc(Nc1nc3ccc(OC(F)(F)F)cc3s1)n2C
